Reference: US20130216666A1, “CASHEW NUT SHELL LIQUID WITH IMPROVED STABILITY” (IDEMITSU KOSAN CO., LTD., priority 2010, published 2013)
Like-named read-outs stand apart in the source and are kept apart here.

How the values were obtained:
[1] = 80° C.; for inhibition of the decarboxylation: a day
Method: The EDTA was prepared as a 10% aqueous solution for the addition.
Samples were taken from the beakers after a day and analyzed for composition by HPLC.

[2] = Inhibition of decarboxylation reaction when organic acid chelating agent was added (HPLC); assay type: physicochemical; details: 80° C.
[3] = 1% by weight in unheated CNSL, Day 0
[4] = 1% by weight in unheated CNSL, Day 1
[5] = 5% by weight in unheated CNSL, Day 0
[6] = 5% by weight in unheated CNSL, Day 1
[7] = 2% by weight in unheated CNSL, Day 0
[8] = 2% by weight in unheated CNSL, Day 6
[9] = 10% by weight in unheated CNSL, Day 0
[10] = 10% by weight in unheated CNSL, Day 6

With `O=C(O)CN(CCN(CC(=O)O)CC(=O)O)CC(=O)O` [EDTA, ethylenediamine tetraacetic acid] the “Anacardic Acid 15:1 Composition (%)” value [1, 3] was 35.11%, the “Anacardic Acid 15:1 concentration” value [1, 3] was 107.38 ppm and the “Anacardic Acid 15:2 Composition (%)” value [1, 3] was 14.05%. For the same molecule, the “Anacardic Acid 15:2 concentration” value [1, 3] was 42.98 ppm, the “Anacardic Acid 15:3 Composition (%)” value [1, 3] was 33.26% and the “Anacardic Acid 15:3 concentration” value [1, 3] was 101.71 ppm. The “Cardanol 15:1 Composition (%)” value [1, 3] was 7.60%, the “Cardanol 15:1 concentration” value [1, 3] was 23.26 ppm and the “Cardanol 15:2 Composition (%)” value [1, 3] was 3.09%. The “Cardanol 15:2 concentration” value [1, 3] was 9.45 ppm, the “Cardanol 15:3 Composition (%)” value [1, 3] was 6.88% and the “Cardanol 15:3 concentration” value [1, 3] was 21.05 ppm. For the same molecule, the “Anacardic Acid 15:1 Composition (%)” value [1, 4] was 27.63%, the “Anacardic Acid 15:1 concentration” value [1, 4] was 61.63 ppm and the “Anacardic Acid 15:2 Composition (%)” value [1, 4] was 11.56%. The “Anacardic Acid 15:2 concentration” value [1, 4] was 25.79 ppm, the “Anacardic Acid 15:3 Composition (%)” value [1, 4] was 26.75% and the “Anacardic Acid 15:3 concentration” value [1, 4] was 59.67 ppm. The “Cardanol 15:1 Composition (%)” value [1, 4] was 15.11%, the “Cardanol 15:1 concentration” value [1, 4] was 33.70 ppm and the “Cardanol 15:2 Composition (%)” value [1, 4] was 5.60%. The “Cardanol 15:2 concentration” value [1, 4] was 12.49 ppm, the “Cardanol 15:3 Composition (%)” value [1, 4] was 13.34% and the “Cardanol 15:3 concentration” value [1, 4] was 29.75 ppm. For the same molecule, the “inhibition of the decarboxylation” value ([1]; 1% by weight) was “moderate inhibition”, the “Anacardic Acid 15:1 Composition (%)” value [1, 5] was 35.11% and the “Anacardic Acid 15:1 concentration” value [1, 5] was 107.38 ppm. The “Anacardic Acid 15:2 Composition (%)” value [1, 5] was 14.05%, the “Anacardic Acid 15:2 concentration” value [1, 5] was 42.98 ppm and the “Anacardic Acid 15:3 Composition (%)” value [1, 5] was 33.26%. The “Anacardic Acid 15:3 concentration” value [1, 5] was 101.71 ppm, the “Cardanol 15:1 Composition (%)” value [1, 5] was 7.60% and the “Cardanol 15:1 concentration” value [1, 5] was 23.26 ppm. The “Cardanol 15:2 Composition (%)” value [1, 5] was 3.09%, the “Cardanol 15:2 concentration” value [1, 5] was 9.45 ppm and the “Cardanol 15:3 Composition (%)” value [1, 5] was 6.88%. The “Cardanol 15:3 concentration” value [1, 5] was 21.05 ppm, the “Anacardic Acid 15:1 Composition (%)” value [1, 6] was 29.16% and the “Anacardic Acid 15:1 concentration” value [1, 6] was 101.34 ppm. The “Anacardic Acid 15:2 Composition (%)” value [1, 6] was 11.39%, the “Anacardic Acid 15:2 concentration” value [1, 6] was 39.59 ppm and the “Anacardic Acid 15:3 Composition (%)” value [1, 6] was 27.51%. The “Anacardic Acid 15:3 concentration” value [1, 6] was 95.61 ppm, the “Cardanol 15:1 Composition (%)” value [1, 6] was 14.21% and the “Cardanol 15:1 concentration” value [1, 6] was 49.37 ppm. The “Cardanol 15:2 Composition (%)” value [1, 6] was 5.34%, the “Cardanol 15:2 concentration” value [1, 6] was 18.56 ppm and the “Cardanol 15:3 Composition (%)” value [1, 6] was 12.39%. For the same molecule, the “Cardanol 15:3 concentration” value [1, 6] was 43.07 ppm and the “inhibition of the decarboxylation” value ([1]; 5% by weight) was “significant inhibition”.

In the case of `O=C(O)CC(O)C(=O)O` (centres unmarked) [Malic Acid, malic acid], the “Anacardic Acid 15:1 Composition (%)” value [2, 7] is reported as 39.93%, the “Anacardic Acid 15:1 concentration” value [2, 7] is reported as 321.20 ppm and the “Anacardic Acid 15:2 Composition (%)” value [2, 7] is reported as 14.22%. The “Anacardic Acid 15:2 concentration” value [2, 7] was 114.37 ppm, the “Anacardic Acid 15:3 Composition (%)” value [2, 7] was 33.03% and the “Anacardic Acid 15:3 concentration” value [2, 7] was 265.67 ppm. The “Cardanol 15:1 Composition (%)” value [2, 7] was 5.30%, the “Cardanol 15:1 concentration” value [2, 7] was 42.62 ppm and the “Cardanol 15:2 Composition (%)” value [2, 7] was 2.27%. The “Cardanol 15:2 concentration” value [2, 7] was 18.28 ppm, the “Cardanol 15:3 Composition (%)” value [2, 7] was 5.26% and the “Cardanol 15:3 concentration” value [2, 7] was 42.29 ppm. The “Anacardic Acid 15:1 Composition (%)” value [2, 8] was 30.38%, the “Anacardic Acid 15:1 concentration” value [2, 8] was 258.72 ppm and the “Anacardic Acid 15:2 Composition (%)” value [2, 8] was 10.45%. The “Anacardic Acid 15:2 concentration” value [2, 8] was 88.98 ppm, the “Anacardic Acid 15:3 Composition (%)” value [2, 8] was 24.29% and the “Anacardic Acid 15:3 concentration” value [2, 8] was 206.87 ppm. For the same molecule, the “Cardanol 15:1 Composition (%)” value [2, 8] was 15.35%, the “Cardanol 15:1 concentration” value [2, 8] was 130.72 ppm and the “Cardanol 15:2 Composition (%)” value [2, 8] was 5.81%. The “Cardanol 15:2 concentration” value [2, 8] was 49.51 ppm, the “Cardanol 15:3 Composition (%)” value [2, 8] was 13.71% and the “Cardanol 15:3 concentration” value [2, 8] was 116.77 ppm. For the same molecule, the “Anacardic Acid 15:1 Composition (%)” value [2, 9] was 39.28%, the “Anacardic Acid 15:1 concentration” value [2, 9] was 270.21 ppm and the “Anacardic Acid 15:2 Composition (%)” value [2, 9] was 14.28%. For the same molecule, the “Anacardic Acid 15:2 concentration” value [2, 9] was 98.21 ppm, the “Anacardic Acid 15:3 Composition (%)” value [2, 9] was 33.24% and the “Anacardic Acid 15:3 concentration” value [2, 9] was 228.68 ppm. For the same molecule, the “Cardanol 15:1 Composition (%)” value [2, 9] was 5.47%, the “Cardanol 15:1 concentration” value [2, 9] was 37.65 ppm and the “Cardanol 15:2 Composition (%)” value [2, 9] was 2.39%. The “Cardanol 15:2 concentration” value [2, 9] was 16.44 ppm, the “Cardanol 15:3 Composition (%)” value [2, 9] was 5.33% and the “Cardanol 15:3 concentration” value [2, 9] was 36.70 ppm. The “Anacardic Acid 15:1 Composition (%)” value [2, 10] was 37.43%, the “Anacardic Acid 15:1 concentration” value [2, 10] was 229.25 ppm and the “Anacardic Acid 15:2 Composition (%)” value [2, 10] was 13.73%. The “Anacardic Acid 15:2 concentration” value [2, 10] was 84.08 ppm, the “Anacardic Acid 15:3 Composition (%)” value [2, 10] was 31.28% and the “Anacardic Acid 15:3 concentration” value [2, 10] was 191.59 ppm. For the same molecule, the “Cardanol 15:1 Composition (%)” value [2, 10] was 7.28%, the “Cardanol 15:1 concentration” value [2, 10] was 44.57 ppm and the “Cardanol 15:2 Composition (%)” value [2, 10] was 3.41%. For the same molecule, the “Cardanol 15:2 concentration” value [2, 10] was 20.90 ppm, the “Cardanol 15:3 Composition (%)” value [2, 10] was 6.87% and the “Cardanol 15:3 concentration” value [2, 10] was 42.08 ppm.

With `O=C(O)C(O)C(O)C(=O)O` (centres unmarked) [Tartaric Acid, tartaric acid] the “Anacardic Acid 15:1 Composition (%)” value [2, 7] was 42.00%, the “Anacardic Acid 15:1 concentration” value [2, 7] was 351.16 ppm and the “Anacardic Acid 15:2 Composition (%)” value [2, 7] was 13.27%. The “Anacardic Acid 15:2 concentration” value [2, 7] was 110.99 ppm, the “Anacardic Acid 15:3 Composition (%)” value [2, 7] was 31.29% and the “Anacardic Acid 15:3 concentration” value [2, 7] was 261.63 ppm. For the same molecule, the “Cardanol 15:1 Composition (%)” value [2, 7] was 5.69%, the “Cardanol 15:1 concentration” value [2, 7] was 47.57 ppm and the “Cardanol 15:2 Composition (%)” value [2, 7] was 2.50%. For the same molecule, the “Cardanol 15:2 concentration” value [2, 7] was 20.90 ppm, the “Cardanol 15:3 Composition (%)” value [2, 7] was 5.25% and the “Cardanol 15:3 concentration” value [2, 7] was 43.86 ppm. The “Anacardic Acid 15:1 Composition (%)” value [2, 8] was 30.33%, the “Anacardic Acid 15:1 concentration” value [2, 8] was 272.03 ppm and the “Anacardic Acid 15:2 Composition (%)” value [2, 8] was 10.57%. For the same molecule, the “Anacardic Acid 15:2 concentration” value [2, 8] was 94.78 ppm, the “Anacardic Acid 15:3 Composition (%)” value [2, 8] was 24.25% and the “Anacardic Acid 15:3 concentration” value [2, 8] was 217.48 ppm. For the same molecule, the “Cardanol 15:1 Composition (%)” value [2, 8] was 15.59%, the “Cardanol 15:1 concentration” value [2, 8] was 139.84 ppm and the “Cardanol 15:2 Composition (%)” value [2, 8] was 5.66%. For the same molecule, the “Cardanol 15:2 concentration” value [2, 8] was 50.74 ppm, the “Cardanol 15:3 Composition (%)” value [2, 8] was 13.62% and the “Cardanol 15:3 concentration” value [2, 8] was 122.16 ppm. The “Anacardic Acid 15:1 Composition (%)” value [2, 9] was 39.70%, the “Anacardic Acid 15:1 concentration” value [2, 9] was 250.76 ppm and the “Anacardic Acid 15:2 Composition (%)” value [2, 9] was 14.24%. For the same molecule, the “Anacardic Acid 15:2 concentration” value [2, 9] was 89.95 ppm, the “Anacardic Acid 15:3 Composition (%)” value [2, 9] was 32.59% and the “Anacardic Acid 15:3 concentration” value [2, 9] was 205.85 ppm. The “Cardanol 15:1 Composition (%)” value [2, 9] was 5.45%, the “Cardanol 15:1 concentration” value [2, 9] was 34.40 ppm and the “Cardanol 15:2 Composition (%)” value [2, 9] was 2.70%. The “Cardanol 15:2 concentration” value [2, 9] was 17.07 ppm, the “Cardanol 15:3 Composition (%)” value [2, 9] was 5.31% and the “Cardanol 15:3 concentration” value [2, 9] was 33.53 ppm. The “Anacardic Acid 15:1 Composition (%)” value [2, 10] was 39.12%, the “Anacardic Acid 15:1 concentration” value [2, 10] was 267.36 ppm and the “Anacardic Acid 15:2 Composition (%)” value [2, 10] was 13.52%. The “Anacardic Acid 15:2 concentration” value [2, 10] was 92.36 ppm, the “Anacardic Acid 15:3 Composition (%)” value [2, 10] was 31.14% and the “Anacardic Acid 15:3 concentration” value [2, 10] was 212.78 ppm. For the same molecule, the “Cardanol 15:1 Composition (%)” value [2, 10] was 6.81%, the “Cardanol 15:1 concentration” value [2, 10] was 46.56 ppm and the “Cardanol 15:2 Composition (%)” value [2, 10] was 3.24%. The “Cardanol 15:2 concentration” value [2, 10] was 22.13 ppm, the “Cardanol 15:3 Composition (%)” value [2, 10] was 6.17% and the “Cardanol 15:3 concentration” value [2, 10] was 42.19 ppm.
